pKi: −log10 of the molar value.
Target: T1, C-SH3 Grb2 (C-terminal SH3 domain of Grb2) (Homo sapiens, UniProt P62993)
T1 construct: isolated C-terminal SH3 domain, recombinant, expressed and purified as previously reported
Experiment: tryptophan fluorescence, titration of preformed C-SH3:Gab2 peptide complex
Format: binding
Conditions: read-out: apparent inhibition constant

T1 sequence (P62993 159-217 limits assumed): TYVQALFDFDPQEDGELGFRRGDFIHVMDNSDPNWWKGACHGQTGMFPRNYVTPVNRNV

- pKi: ~5.30
Compound: CCOc1cc(CNCCc2ccc(OC)cc2)ccc1OCc1cccc(Cl)c1 [AN-465-J137-985, N-(4-((3-Chlorobenzyl)oxy)-3-ethoxybenzyl)-2-(4-methoxyphenyl)ethan-1-amine]
